According to PMC6479877, “Development of Chemical Tools to Monitor Human Kallikrein 13 (KLK13) Activity” (International Journal of Molecular Sciences, 2019):
Blank lines part the entries; values can stand above or below the compound they belong to. Where a SMILES comes first, the peptide text is derived from it. The star is where a group is joined. Biotin = O=C1N[C@H]2[C@H](CS[C@H]2CCCCC(=O)*)N1; AEA = NCCOCC(=O)O; CH2Cl = ClC*

Legend:
KLK13 [1] = target: T1, KLK13 (Homo sapiens, UniProt Q9UKR3); assay: Detection of KLK13 using biotinylated ABPs (streptavidin-HRP Western blot); type: binding; parameters: His6 (the forward primers encode HHHHHH followed by DDDDK; the protein was purified on nickel) (N); made in house; host or cells: Leishmania tarentolae strain T7-TR (LEXSY), secreted to the medium; details: 1 µM probe, TNET buffer, 1 h at 37 °C; twofold dilutions of KLK13 500 to 4 ng
T1 sequence (Q9UKR3 26-277 limits assumed): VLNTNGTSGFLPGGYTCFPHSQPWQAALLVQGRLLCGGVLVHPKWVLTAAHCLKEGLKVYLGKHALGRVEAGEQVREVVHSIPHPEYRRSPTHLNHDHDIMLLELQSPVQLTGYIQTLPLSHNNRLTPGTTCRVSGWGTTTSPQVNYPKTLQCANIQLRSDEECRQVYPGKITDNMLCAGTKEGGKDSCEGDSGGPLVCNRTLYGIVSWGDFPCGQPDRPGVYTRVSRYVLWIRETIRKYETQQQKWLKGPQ
Description: Purified active KLK13 (250 ng) was preincubated with increasing concentrations of Bt-PEG-VRFR-CMK or Bt-VRFR-CMK in TNET buffer (0.1 M Tris-HCl, 150 mM NaCl, 5 mM EDTA, 0.05% Tween-20, pH 7.5) for 1 h at 37 °C. Samples were analyzed by SDS-PAGE followed by wet electrotransfer onto a PVDF membrane (GE Healthcare). Membranes were blocked in 5% BSA in TBS buffer (50 mM Tris-HCl, 0.5 M NaCl, pH 7.5) with 0.1% Tween overnight, at 4 °C, followed by incubation with 1:10,000 diluted Streptavidin-HRP (Sigma Aldrich, S2438, Poznan, Poland) for 2 h at RT. After intensive washing with TBS buffer with 0.1% Tween, the signal was developed with Pierce ECL WB substrate (Thermo Fisher Scientific) and visualized manually using AGFA films (Agfa HealthCare, Mortsel, Belgium). To establish the detection limit, decreasing amounts of active KLK13 (ranging from 3.9-500 ng) were preincubated with 1 µM Bt-PEG-VRFR-CMK in TNET buffer for 1 h at 37 °C and visualized by streptavidin-HRP Western blot as described above.

KLK13 [2] = target: T1, KLK13; assay: Inhibitory activity of CMK inhibitors / activity-based probes against KLK13; type: biochemical; parameters: His6 (the forward primers encode HHHHHH followed by DDDDK; the protein was purified on nickel) (N); made in house; details: progress curves method, irreversible inhibition, inhibitor 0–50 µM, Substrate 2 10 µM, KLK13 10 nM, 37 °C, pH 7.5, mean ± SD of three replicates
Description: The kinetic parameters of inhibition were determined using a progress curve model for irreversible inhibition, as described previously. […] Upon the addition of KLK13 (final concentration 10 nM), the fluorescence of the hydrolyzed substrate was monitored in each sample at excitation and emission wavelengths of 320 and 450 nm, respectively, for 1 h using a microplate reader Gemini EM (Molecular Devices, Berkshire, UK). The reactions were carried out in 200 µL of final volume of 50 mM Tris-Cl (pH 7.5) containing 1 mM EDTA and 0.5 μM heparin at 37 °C. Progress curves were fitted to the resulting data points and then kobs derived from each curve was plotted against inhibitor concentration. Final values of kass were calculated by linear regression and presented as mean ± SD of three independent replicates.

KLK13 [3] = target: T1, KLK13; assay: Kinetic parameters of substrate hydrolysis by KLK13; type: biochemical; parameters: His6 (the forward primers encode HHHHHH followed by DDDDK; the protein was purified on nickel) (N); made in house; host or cells: Leishmania tarentolae strain T7-TR (LEXSY), secreted to the medium; details: KLK13 1.25 × 10^−9 M; for Km / kcat: measured in triplicate, ± SD; for kcat/KM (specificity constant): calculated from kcat and KM
Description: The specificity constant (kcat/KM) was calculated from kcat and KM. The details of kinetic studies and the method of calculating kinetic parameters have been described previously.

KLK13 [4] = target: T1, KLK13; assay: Detection limit of KLK13 activity with the substrates; type: biochemical; parameters: His6 (the forward primers encode HHHHHH followed by DDDDK; the protein was purified on nickel) (N); made in house; host or cells: Leishmania tarentolae strain T7-TR (LEXSY), secreted to the medium; details: constant amount of substrate, decreasing KLK13; 50 mM Tris-Cl pH 7.5, 1 mM EDTA, 0.5 μM heparin, 37 °C
Description: The detection limit was established by analyzing the correlation between an increase in absorbance/fluorescence and enzyme concentration at constant quantities of each, ABZ-Val-Arg-Phe-Arg-ANB-NH2 (Substrate 1) and ABZ-[…]3-NO2)-NH2 (Substrate 2).
Int. J. Mol. Sci. 2019, 20, x FOR PEER REVIEW 2 of 2
Figure S2. Detection limit and pH optimum of KLK13 as determined for the optimized substrates.
Substrates 1 (A) and 2 (B) were titrated with decreasing amounts of KLK13 in 50 mM Tris-Cl (pH 7.5) buffer containing 1 mM EDTA and 0.5 μM heparin at 37 °C. ( C) pH dependence of KLK13. Processing […]
of ABZ-[…]3-NO 2)-NH2 by KLK13 was monitored at pH range of 3 to 10 (citric acid/sodium citrate, sodium acetate/acetic acid, MES, MOPS, HEPES and TRIS buffers).
Reaction progress was monitored by fluorescence detection at the excitation and emission wavelength […]
(1 picture or pasted object on this page, not shown here)

KLK13 [5] = target: T1, KLK13; assay: Site of hydrolysis by RP-HPLC with fluorescence detection and MS; type: biochemical; parameters: His6 (the forward primers encode HHHHHH followed by DDDDK; the protein was purified on nickel) (N); made in house; host or cells: Leishmania tarentolae strain T7-TR (LEXSY), secreted to the medium; details: RP-HPLC with fluorescence detection coupled to MS
Description: The site of hydrolysis was determined after each step of deconvolution of primed site library and for both final substrates (1 and 2) by RP-HPLC monitored by fluorescence detection and MS.

[6] = system: KLK1, KLK2, KLK3, KLK4, KLK6, KLK8, KLK12; assay: Selectivity assessment of substrate 2: other kallikreins; type: biochemical; details: substrate 6.15 μM, enzymes 1.25 nM, 37 °C, 50 mM Tris-Cl pH 7.5, 1 mM EDTA, 0.5 μM heparin; fluorescence 450 nm
Description: (§1) Substrate 2 (6.15 μM) was incubated with tested kallikreins (KLK1, KLK2, KLK3, KLK4, KLK6, KLK8, KLK12, KLK13) and cathepsins (CatX, CatL, CatS, CatD, CatH, CatB), all at a concentration of 1.25 nM, at 37 °C in 50 mM Tris-Cl (pH 7.5) buffer containing 1 mM EDTA and 0.5 μM heparin. Proteolytic activity was assayed as an increase in fluorescence at 450 nm.

KLK13 [7] = target: T1, KLK13; assay: pH dependence of KLK13 activity; type: biochemical; parameters: His6 (the forward primers encode HHHHHH followed by DDDDK; the protein was purified on nickel) (N); made in house; host or cells: Leishmania tarentolae strain T7-TR (LEXSY), secreted to the medium; details: KLK13 1.25 nM, substrate 6.15 µM, 37 °C, buffers pH 3 to 10
Description: The pH dependence of KLK13 (1.25 nM) was established at 37 °C using substrate 2 (6.15 µM) in following buffers: citric acid/sodium citrate (pH 3), sodium acetate/acetic acid (pH 4 and 5), MES (pH 6), MOPS (pH 7), HEPES (pH 8) and TRIS (pH 9 and 10).

[8] = system: cathepsins (CatX, CatL, CatS, CatD, CatH, CatB); assay: Selectivity assessment of substrate 2: cathepsins; type: biochemical; details: substrate 6.15 μM, enzymes 1.25 nM, 37 °C, 50 mM Tris-Cl pH 7.5, 1 mM EDTA, 0.5 μM heparin; fluorescence 450 nm
Description: as §1

- Detection limit of purified KLK13 in Western blot (KLK13 [1]): ~15 ng
- kass (KLK13 [2]): 204 ± 23 M⁻¹ s⁻¹
Compound: CC(C)[C@H](NC(=O)COCCNC(=O)CCCC[C@@H]1SC[C@@H]2NC(=O)N[C@@H]21)C(=O)N[C@@H](CCCNC(=N)N)C(=O)N[C@@H](Cc1ccccc1)C(=O)N[C@@H](CCCNC(=N)N)C(=O)CCl [Bt-PEG-VRFR-CMK, Bt-PEG-Val-Arg-Phe-Arg-CMK] ({Biotin-AEA}-VRFR-CH2Cl)

- kass (KLK13 [2]): 49 ± 2 M⁻¹ s⁻¹
Compound: CC(C)[C@H](NC(=O)CCCC[C@@H]1SC[C@@H]2NC(=O)N[C@@H]21)C(=O)N[C@@H](CCCNC(=N)N)C(=O)N[C@@H](Cc1ccccc1)C(=O)N[C@@H](CCCNC(=N)N)C(=O)CCl [Bt-VRFR-CMK, Bt-Val-Arg-Phe-Arg-CMK] (Biotin-VRFR-CH2Cl)

Compound: ABZ-VRFRSTE-Tyr(3-NO2)-NH2 [optimized substrate differing only at the P3′ position (Glu)]
- Km (KLK13 [3]): 24.7 ± 5.8 µM
- kcat (KLK13 [3]): 91.11 ± 11.61 s⁻¹
- kcat/KM (specificity constant) (KLK13 [3]): (3.69 ± 0.40) ×10^6 M^−1·s^−1

Compound: ABZ-VRFRSTG-Tyr(3-NO2)-NH2 [optimized substrate differing only at the P3′ position (Gly)]
- Km (KLK13 [3]): 19.7 ± 3 µM
- kcat (KLK13 [3]): 169.40 ± 12.40 s⁻¹
- kcat/KM (specificity constant) (KLK13 [3]): (8.62 ± 0.37) ×10^6 M^−1·s^−1

Compound: ABZ-VRFRSTS-Tyr(3-NO2)-NH2 [optimized substrate differing only at the P3′ position (Ser)]
- Km (KLK13 [3]): 14.7 ± 2.2 µM
- kcat (KLK13 [3]): 113.12 ± 6.87 s⁻¹
- kcat/KM (specificity constant) (KLK13 [3]): (7.71 ± 0.67) ×10^6 M^−1·s^−1

Compound: ABZ-Val-Arg-Phe-Arg-ANB-NH2 [Substrate 1, kinetically preferred non-primed fluorogenic/chromogenic KLK13 substrate]
- Km (KLK13 [3]): 17.8 ± 2.8 µM
- kcat (KLK13 [3]): 94.36 ± 3.05 s⁻¹
- kcat/KM (specificity constant) (KLK13 [3]): over 5 × 10^6 M^−1·s^−1
- kcat/KM (specificity constant) (KLK13 [3]; listed as ABZ-VRFR-ANB-NH2 (1)): (5.31 ± 0.34) ×10^6 M^−1·s^−1
- KLK13 concentration at which fluorescence increase was still detectable (KLK13 [4]): 1.56 nM

Compound: ABZ-Val-Arg-Phe-Arg-Ser-Thr-Gln-Tyr(3-NO2)-NH2 [Substrate 2, internally quenched fluorogenic KLK13 substrate spanning P4-P3′]
- Site of hydrolysis by KLK13 (KLK13 [5]): exclusively hydrolyzed at the Arg-Ser peptide bond
- Km (KLK13 [3]): 10 ± 1.9 µM
- kcat (KLK13 [3]): 96.43 ± 7.15 s⁻¹
- kcat/KM (specificity constant) (KLK13 [3]; listed as ABZ-VRFRSTQ-Tyr(3-NO2)-NH2 (2)): (9.64 ± 1.08) ×10^6 M^−1·s^−1
- kcat/KM (specificity constant) (KLK13 [3]; listed as ABZ-Val-Arg-Phe-Arg-Ser-Thr-Gln-Tyr(3-NO2)-NH2): ≈ 10^7 M^−1·s^−1
- kcat/KM (specificity constant) (KLK13 [3]; listed as substrate 2): ~1e+07 M⁻¹ s⁻¹
- Cleavage by other kallikreins relative to the activity of KLK13 [6]: ≤ 20%
- KLK13 concentration at which fluorescence increase was still detectable (KLK13 [4]): 0.0488 nM
- Optimal pH for processing of the substrate by KLK13 (KLK13 [7]): 9
- Hydrolysis by cathepsins [8]: None of tested cathepsins hydrolyzed
